We go through 1 compound from ChEMBL document CHEMBL5715956, “Selective Targeting of Bromodomains of the Bromodomain-PHD Fingers Family Impairs Osteoclast Differentiation” (ACS Chem Biol, 2017).

Molecules are shown by their SMILES.

The target in data set [1] is Transcription initiation factor TFIID subunit 1-like (Homo sapiens) (UniProt Q8IZX4). Conditions: dose 10.0 µM.
For data set [2], the species on record is Homo sapiens. The settings on record: dose 10.0 µM.
Data set [3] addresses Histone acetyltransferase KAT2B (Homo sapiens) (UniProt Q92831). Conditions: dose 10.0 µM.
Data set [4] addresses Tyrosine-protein kinase BAZ1B (Homo sapiens) (UniProt Q9UIG0). The settings on record: dose 10.0 µM.
The target of data set [5] is Bromodomain-containing protein 3 (Homo sapiens) (UniProt Q15059). The settings on record: dose 10.0 µM.
Sequence of Bromodomain-containing protein 3 (Homo sapiens) (Q15059 2-726 limits assumed): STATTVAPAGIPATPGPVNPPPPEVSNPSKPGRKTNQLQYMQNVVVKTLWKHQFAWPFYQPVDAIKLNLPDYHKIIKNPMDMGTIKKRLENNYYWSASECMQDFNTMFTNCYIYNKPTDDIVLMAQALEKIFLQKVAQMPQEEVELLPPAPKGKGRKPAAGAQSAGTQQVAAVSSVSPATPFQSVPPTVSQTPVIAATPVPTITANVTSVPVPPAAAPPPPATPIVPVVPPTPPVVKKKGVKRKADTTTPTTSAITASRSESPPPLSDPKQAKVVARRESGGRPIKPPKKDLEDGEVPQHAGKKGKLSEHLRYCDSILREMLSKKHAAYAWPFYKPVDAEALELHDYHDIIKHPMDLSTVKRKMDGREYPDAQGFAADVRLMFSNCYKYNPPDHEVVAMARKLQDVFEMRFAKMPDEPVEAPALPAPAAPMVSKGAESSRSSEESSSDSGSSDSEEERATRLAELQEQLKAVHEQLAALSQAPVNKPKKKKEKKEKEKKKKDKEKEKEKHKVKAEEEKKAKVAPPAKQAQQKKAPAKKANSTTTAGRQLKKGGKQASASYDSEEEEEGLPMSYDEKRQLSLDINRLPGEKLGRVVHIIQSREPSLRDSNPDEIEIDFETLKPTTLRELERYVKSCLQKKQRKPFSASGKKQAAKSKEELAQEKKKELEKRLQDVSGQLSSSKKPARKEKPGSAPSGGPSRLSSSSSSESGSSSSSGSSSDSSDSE
Data set [6] concerns the target Histamine H1 receptor (Homo sapiens) (UniProt P35367). Description: Binding affinity to H1 receptor (unknown origin) assessed as specific binding at 10 uM relative to control.
Data set [7] has as its target Nuclear body protein SP140 (Homo sapiens) (UniProt Q13342). Conditions: dose 10.0 µM.
Data set [8] concerns the target KV channel (voltage-gated potassium channel family) (Homo sapiens, UniProt O43525+O43526+O95259+P16389+P17658+P22001+P22459+P22460+P48547+P51787+P56696+Q03721+Q09470+Q12809+Q14003+Q14721+Q16322+Q6PIU1+Q8NCM2+Q8TAE7+Q8TDN1+Q8TDN2+Q92953+Q96KK3+Q96L42+Q96PR1+Q96RP8+Q9BQ31+Q9H252+Q9H3M0+Q9NR82+Q9NS40+Q9NSA2+Q9NZV8+Q9UIX4+Q9UJ96+Q9UK17+Q9ULD8+Q9ULS6+Q9UQ05). Description: Binding affinity to KV channel (unknown origin) assessed as specific binding at 10 uM relative to control. It counts as protein assay. The settings on record: read-out: Activity.

Data set [9] concerns the target T1, Peregrin (Homo sapiens) (UniProt P55201).
T1 sequence (whole entry): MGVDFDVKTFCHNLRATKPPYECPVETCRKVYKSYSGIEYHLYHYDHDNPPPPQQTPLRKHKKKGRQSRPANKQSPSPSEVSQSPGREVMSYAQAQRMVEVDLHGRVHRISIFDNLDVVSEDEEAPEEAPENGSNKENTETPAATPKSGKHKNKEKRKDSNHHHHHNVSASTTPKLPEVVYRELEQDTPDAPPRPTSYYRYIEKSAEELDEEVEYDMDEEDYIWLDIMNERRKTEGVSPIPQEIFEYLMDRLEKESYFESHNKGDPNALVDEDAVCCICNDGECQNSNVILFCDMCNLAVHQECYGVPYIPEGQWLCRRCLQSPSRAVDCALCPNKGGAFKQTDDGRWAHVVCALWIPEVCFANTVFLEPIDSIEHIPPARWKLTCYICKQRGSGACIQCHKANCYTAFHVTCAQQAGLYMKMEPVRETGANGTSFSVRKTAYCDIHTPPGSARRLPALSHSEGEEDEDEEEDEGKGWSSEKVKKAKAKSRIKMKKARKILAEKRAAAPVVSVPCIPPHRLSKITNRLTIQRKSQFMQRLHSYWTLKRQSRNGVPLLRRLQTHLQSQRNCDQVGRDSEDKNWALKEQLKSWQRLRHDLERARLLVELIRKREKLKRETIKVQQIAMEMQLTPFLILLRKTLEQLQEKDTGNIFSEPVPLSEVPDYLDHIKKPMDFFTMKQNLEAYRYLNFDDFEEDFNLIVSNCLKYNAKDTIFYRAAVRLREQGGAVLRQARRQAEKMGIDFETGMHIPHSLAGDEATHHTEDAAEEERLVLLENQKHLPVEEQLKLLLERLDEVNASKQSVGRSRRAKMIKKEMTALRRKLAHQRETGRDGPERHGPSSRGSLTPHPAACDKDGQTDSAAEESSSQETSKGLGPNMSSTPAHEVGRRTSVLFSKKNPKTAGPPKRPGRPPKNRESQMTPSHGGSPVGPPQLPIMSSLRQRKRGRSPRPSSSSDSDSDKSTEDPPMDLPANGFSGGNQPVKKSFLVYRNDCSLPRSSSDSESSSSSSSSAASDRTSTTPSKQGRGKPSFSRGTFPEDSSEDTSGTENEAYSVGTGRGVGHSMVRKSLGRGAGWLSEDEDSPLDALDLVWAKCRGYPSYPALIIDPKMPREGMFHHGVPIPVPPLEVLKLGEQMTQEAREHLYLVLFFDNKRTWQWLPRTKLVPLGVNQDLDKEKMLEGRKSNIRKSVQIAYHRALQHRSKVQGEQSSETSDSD
Description: Binding affinity to […] (unknown origin) assessed as change in entropy at 17 uM by Isothermal titration calorimetry.

Data set [10] has as its target Bromodomain testis-specific protein (Homo sapiens) (UniProt Q58F21). Conditions: dose 10.0 µM.
In data set [11] the target is Histone-lysine N-methyltransferase ASH1L (Homo sapiens) (UniProt Q9NR48). The settings on record: dose 10.0 µM.
Data set [12] has as its target Transcription intermediary factor 1-alpha (Homo sapiens) (UniProt O15164). Conditions: dose 10.0 µM.
Data set [13] concerns the target T1, Peregrin (Homo sapiens). The settings on record: dose 10.0 µM.
In data set [14] the target is Adenosine receptor A1 (Homo sapiens) (UniProt P30542). Description: Binding affinity to A1 receptor (unknown origin) assessed as specific binding at 10 uM relative to control.
Sequence of Adenosine receptor A1 (Homo sapiens) (P30542 whole entry): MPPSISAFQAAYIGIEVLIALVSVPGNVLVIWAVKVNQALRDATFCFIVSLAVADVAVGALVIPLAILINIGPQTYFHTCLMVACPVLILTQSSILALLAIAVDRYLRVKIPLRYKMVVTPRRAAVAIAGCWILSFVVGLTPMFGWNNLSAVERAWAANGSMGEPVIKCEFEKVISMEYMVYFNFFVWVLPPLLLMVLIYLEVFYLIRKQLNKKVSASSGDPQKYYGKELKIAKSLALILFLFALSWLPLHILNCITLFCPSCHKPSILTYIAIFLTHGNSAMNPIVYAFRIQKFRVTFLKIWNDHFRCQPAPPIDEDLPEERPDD
The target of data set [15] is Beta-1 adrenergic receptor (Homo sapiens) (UniProt P08588). Description: Inhibition of Beta1 (unknown origin) at 10 uM relative to control.
Sequence of Beta-1 adrenergic receptor (Homo sapiens) (P08588 whole entry, looked up): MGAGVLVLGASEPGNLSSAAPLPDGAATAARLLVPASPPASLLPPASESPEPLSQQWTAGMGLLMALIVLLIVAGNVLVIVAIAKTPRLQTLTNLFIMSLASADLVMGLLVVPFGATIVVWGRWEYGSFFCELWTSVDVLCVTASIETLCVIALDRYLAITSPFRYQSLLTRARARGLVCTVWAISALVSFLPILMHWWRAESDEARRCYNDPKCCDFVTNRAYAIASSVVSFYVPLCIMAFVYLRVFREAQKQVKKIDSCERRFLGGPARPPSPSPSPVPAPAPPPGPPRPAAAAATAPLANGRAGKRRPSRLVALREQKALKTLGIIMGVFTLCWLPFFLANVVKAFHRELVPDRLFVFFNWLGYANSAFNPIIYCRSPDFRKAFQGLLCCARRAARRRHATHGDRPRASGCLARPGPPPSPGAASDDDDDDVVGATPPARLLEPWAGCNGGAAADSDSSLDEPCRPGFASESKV

Sequence of Nuclear body protein SP140 (Homo sapiens) (Q13342 whole entry): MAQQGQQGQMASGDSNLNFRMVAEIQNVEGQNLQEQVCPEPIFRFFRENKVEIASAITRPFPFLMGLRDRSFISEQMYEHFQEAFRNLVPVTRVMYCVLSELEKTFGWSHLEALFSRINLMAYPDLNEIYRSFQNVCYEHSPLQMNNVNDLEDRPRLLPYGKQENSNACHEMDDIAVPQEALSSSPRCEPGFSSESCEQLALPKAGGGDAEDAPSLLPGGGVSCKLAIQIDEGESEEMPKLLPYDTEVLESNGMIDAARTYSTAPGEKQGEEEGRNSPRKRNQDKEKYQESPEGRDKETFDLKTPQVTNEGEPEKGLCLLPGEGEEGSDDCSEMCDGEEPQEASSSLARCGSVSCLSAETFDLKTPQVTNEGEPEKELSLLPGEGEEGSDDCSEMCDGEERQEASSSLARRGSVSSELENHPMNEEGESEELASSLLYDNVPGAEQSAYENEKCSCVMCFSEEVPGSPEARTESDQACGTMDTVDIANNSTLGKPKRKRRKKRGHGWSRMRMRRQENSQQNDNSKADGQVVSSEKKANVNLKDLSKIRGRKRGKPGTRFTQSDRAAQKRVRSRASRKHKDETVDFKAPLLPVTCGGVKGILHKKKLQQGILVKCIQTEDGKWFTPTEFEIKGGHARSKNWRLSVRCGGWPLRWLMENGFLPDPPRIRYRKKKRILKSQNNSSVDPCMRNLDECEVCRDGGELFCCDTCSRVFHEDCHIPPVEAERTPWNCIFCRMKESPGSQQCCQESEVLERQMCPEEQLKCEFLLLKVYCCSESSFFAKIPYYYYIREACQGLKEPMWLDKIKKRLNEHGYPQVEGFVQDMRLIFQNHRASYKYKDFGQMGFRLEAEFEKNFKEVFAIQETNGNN
Sequence of Transcription initiation factor TFIID subunit 1-like (Homo sapiens) (Q8IZX4 whole entry): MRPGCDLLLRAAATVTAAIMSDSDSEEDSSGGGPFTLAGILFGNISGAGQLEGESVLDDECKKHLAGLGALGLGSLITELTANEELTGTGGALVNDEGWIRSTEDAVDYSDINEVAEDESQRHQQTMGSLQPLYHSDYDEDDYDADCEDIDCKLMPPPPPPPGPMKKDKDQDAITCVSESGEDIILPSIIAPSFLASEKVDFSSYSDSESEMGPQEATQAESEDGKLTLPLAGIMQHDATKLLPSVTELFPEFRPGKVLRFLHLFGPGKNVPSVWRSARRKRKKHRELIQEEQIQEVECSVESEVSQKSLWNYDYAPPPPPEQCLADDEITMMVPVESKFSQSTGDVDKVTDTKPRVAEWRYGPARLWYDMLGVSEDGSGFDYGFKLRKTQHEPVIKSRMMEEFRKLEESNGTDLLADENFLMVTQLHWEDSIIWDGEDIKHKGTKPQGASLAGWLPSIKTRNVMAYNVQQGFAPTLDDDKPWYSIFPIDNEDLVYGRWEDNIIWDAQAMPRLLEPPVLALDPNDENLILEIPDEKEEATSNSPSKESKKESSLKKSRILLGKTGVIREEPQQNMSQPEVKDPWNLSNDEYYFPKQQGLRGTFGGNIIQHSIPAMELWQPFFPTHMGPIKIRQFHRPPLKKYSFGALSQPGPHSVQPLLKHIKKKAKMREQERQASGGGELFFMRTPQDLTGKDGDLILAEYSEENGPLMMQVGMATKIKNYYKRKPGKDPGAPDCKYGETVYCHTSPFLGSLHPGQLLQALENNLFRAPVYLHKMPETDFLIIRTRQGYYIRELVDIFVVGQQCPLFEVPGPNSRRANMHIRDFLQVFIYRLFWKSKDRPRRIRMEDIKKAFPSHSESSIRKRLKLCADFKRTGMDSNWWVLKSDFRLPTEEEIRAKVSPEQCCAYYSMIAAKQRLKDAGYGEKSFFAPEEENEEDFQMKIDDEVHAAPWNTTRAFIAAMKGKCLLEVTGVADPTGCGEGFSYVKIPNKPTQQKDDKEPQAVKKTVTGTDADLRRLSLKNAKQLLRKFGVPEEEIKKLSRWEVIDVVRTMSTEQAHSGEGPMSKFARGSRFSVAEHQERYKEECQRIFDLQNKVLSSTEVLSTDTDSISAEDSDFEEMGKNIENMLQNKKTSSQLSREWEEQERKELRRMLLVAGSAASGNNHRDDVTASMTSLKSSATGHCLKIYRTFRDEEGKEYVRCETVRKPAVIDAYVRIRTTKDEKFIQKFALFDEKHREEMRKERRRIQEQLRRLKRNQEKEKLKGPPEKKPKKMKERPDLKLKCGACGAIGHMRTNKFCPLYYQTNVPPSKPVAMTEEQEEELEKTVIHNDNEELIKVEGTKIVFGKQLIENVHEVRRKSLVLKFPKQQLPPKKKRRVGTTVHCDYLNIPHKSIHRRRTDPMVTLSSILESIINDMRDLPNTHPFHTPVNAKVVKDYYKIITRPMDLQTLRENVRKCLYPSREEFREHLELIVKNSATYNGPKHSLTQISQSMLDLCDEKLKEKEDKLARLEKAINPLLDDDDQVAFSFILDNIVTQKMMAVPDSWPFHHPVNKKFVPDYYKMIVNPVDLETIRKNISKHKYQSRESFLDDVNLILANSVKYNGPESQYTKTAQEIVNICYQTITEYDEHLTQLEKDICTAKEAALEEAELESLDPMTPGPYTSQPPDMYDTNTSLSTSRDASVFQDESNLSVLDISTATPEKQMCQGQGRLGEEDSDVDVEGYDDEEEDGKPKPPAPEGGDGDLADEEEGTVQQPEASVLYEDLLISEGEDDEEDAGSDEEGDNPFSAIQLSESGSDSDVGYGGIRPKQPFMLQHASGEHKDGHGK
Sequence of Histone acetyltransferase KAT2B (Homo sapiens) (Q92831 whole entry, looked up): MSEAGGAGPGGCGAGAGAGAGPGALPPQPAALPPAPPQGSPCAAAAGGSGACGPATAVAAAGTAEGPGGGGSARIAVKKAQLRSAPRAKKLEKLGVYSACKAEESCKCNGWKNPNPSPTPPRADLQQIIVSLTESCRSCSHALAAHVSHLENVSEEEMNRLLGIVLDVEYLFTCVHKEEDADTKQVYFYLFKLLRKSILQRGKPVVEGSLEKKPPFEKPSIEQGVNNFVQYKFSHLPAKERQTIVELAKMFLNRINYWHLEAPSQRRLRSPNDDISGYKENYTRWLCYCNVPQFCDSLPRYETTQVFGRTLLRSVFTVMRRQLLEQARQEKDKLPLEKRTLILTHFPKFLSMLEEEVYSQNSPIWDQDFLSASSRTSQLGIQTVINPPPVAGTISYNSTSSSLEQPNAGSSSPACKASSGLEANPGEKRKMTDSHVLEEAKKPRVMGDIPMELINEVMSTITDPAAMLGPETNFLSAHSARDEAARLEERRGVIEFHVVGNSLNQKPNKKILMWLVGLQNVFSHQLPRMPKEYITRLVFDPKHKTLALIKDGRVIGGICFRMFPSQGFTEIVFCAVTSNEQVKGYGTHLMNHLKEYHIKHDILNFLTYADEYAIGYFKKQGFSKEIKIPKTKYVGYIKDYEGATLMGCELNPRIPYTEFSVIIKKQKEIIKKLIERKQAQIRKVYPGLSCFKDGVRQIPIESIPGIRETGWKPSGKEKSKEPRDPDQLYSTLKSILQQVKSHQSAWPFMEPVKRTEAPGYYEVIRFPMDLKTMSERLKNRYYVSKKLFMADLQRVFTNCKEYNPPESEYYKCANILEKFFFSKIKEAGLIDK

`COc1cc2c(cc1NS(=O)(=O)c1ccc(Br)cc1C)n(C)c(=O)n2C`: the ΔTm in data set [1] is 0.3 °C; in data set [2], 0.2 °C; in [3], 0.3 °C; in [4] it was 0.3 °C; in [5], 1.4 °C; in [7], 0.1 °C. Moreover, the ΔTm in data set [10] was 0.8 °C; in data set [11], 0.3 °C; in data set [12] it was 1.8 °C; in [13], 6.5 °C. Further, the Activity was 96.8% in data set [6] and 19.8% in data set [14]. The activity at 10 µM in [8] amounted to 124%. In data set [9], the deltaS was -0.012 kcal/mol/K. The inhibition in [15] worked out at 11%.
